Among the data in patent US6949542B2, “Dihydro-benzo[b][1,4]diazepin-2-one derivatives” (Hoffman-La Roche Inc., priority 2002, dated 2005) are Ki and melting point values, retold here.

Where two headings read alike, the source gives them in different places.

The target of one data set is T1, rat mGlu2 receptor (Rattus norvegicus, UniProt P31421).
T1 construct: expressed in transfected cells; vector pcD1mGR2
Briefly: [3H]-LY354740 binding on mGlu2 transfected CHO cell membranes.

The mark [1] stands for this setting: inhibition of 10 nM [3H]-LY354740 binding, mGlu2 transfected CHO cell membranes, room temperature, 1 hour, read-out: Ki mGlu2.

T1 sequence (P31421 19-872): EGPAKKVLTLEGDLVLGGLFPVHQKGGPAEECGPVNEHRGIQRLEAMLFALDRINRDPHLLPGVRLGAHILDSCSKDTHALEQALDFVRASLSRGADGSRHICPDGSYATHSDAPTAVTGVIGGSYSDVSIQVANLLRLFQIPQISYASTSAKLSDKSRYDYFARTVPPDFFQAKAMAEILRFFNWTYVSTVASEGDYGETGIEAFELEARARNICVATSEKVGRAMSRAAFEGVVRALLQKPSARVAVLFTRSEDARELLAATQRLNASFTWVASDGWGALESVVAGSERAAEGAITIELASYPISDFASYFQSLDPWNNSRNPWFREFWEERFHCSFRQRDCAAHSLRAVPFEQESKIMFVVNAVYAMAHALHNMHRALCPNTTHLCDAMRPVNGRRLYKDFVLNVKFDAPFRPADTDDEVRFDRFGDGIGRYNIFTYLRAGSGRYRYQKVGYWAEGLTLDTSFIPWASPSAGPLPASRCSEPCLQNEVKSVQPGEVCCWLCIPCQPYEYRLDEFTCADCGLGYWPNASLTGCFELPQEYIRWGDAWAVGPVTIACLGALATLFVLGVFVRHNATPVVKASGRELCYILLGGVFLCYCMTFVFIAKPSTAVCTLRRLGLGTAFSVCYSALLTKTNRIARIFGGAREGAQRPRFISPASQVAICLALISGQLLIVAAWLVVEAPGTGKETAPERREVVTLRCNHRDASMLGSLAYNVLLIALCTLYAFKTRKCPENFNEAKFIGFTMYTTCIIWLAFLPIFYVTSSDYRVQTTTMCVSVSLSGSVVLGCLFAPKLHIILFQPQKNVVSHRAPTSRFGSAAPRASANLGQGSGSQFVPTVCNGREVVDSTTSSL
Description for rat mGlu2 receptor: [^3H]-LY354740 Binding on mGlu2 Transfected CHO Cell Membranes
Transfection and Cell Culture
The cells were maintained in Dulbecco's Modified Eagle medium with reduced L-glutamine (2 mM final concentration) and 10% dialysed foetal calf serum from Gibco BRL (Basel, Switzerland).
Cells, cultured as above, were harvested and washed three times with cold PBS and frozen at −80° C. The pellet was resuspended in cold 20 mM HEPES-NaOH buffer containing 10 mM EDTA (pH 7.4), and homogenised with a polytron (Kinematica, AG, Littau, Switzerland) for 10 s at 10 000 rpm. After centrifugation for 30 min. at 4° C., the pellet was washed once with the same buffer, and once with cold 20 mM HEPES-NaOH buffer containing 0.1 mM EDTA, (pH 7.4). Protein content was measured using the Pierce method (Socochim, Lausanne, Switzerland) using bovine serum albumin as standard.
After thawing, the membranes were resuspended in cold 50 mM Tris-HCl buffer containing 2 mM MgCl2 and 2 mM CaCl2, (pH 7) (binding buffer). The final concentration of the membranes in the assays was 25 μg protein/ml. Inhibition experiments were performed with membranes incubated with 10 nM [^3H]-LY354740 at room temperature, for 1 hour, in presence of various concentrations of the compound to be tested. Following the incubations, membranes were filtered onto Whatmann GF/C glass fiber filters and washed 5 times with cold binding buffer. Non specific binding was measured in the presence of 10 μM DCG IV. After transfer of the filters into plastic vials containing 10 ml of Ultima-gold scintillation fluid (Packard, Zürich, Switzerland), the radioactivity was measured by liquid scintillation in a Tri-Carb 2500 TR counter (Packard, Zürich, Switzerland).
The inhibition curves were fitted with a four parameter logistic equation giving IC50 values, and Hill coefficients.

`Cc1nccc(-c2cccc(C3=Nc4cc(N(C)C)c(C(F)(F)F)cc4NC(=O)C3)c2)n1` [Example 303, 7-Dimethylamino-4-[3-(2-methyl-pyrimidin-4-yl)-phenyl]-8-trifluoromethyl-1,3-dihydro-benzo[b][1,4]diazepin-2-one] came in with a melting point of 211 to 212 °C. On rat mGlu2 receptor (setting [1]), the inhibition constant (Ki) turned out to be 45 nM.
Regarding `Cc1cc(-c2cccc(C3=Nc4cc(C)c(C(F)(F)F)cc4NC(=O)C3)c2)nc(NCCO)n1` [Example 322, 4-{3-[2-(2-Hydroxy-ethylamino)-6-methyl-pyrimidin-4-yl]-phenyl}-7-methyl-8-trifluoromethyl-1,3-dihydro-benzo[b][1,4]diazepin-2-one], the melting point is 228 to 230 °C. In addition, at rat mGlu2 receptor (setting [1]), the Ki was 4 nM.
For `COCCNc1nc(C)cc(-c2cccc(C3=Nc4cc(N(C)C)c(C(F)(F)F)cc4NC(=O)C3)c2)n1` [Example 326, 7-Dimethylamino-4-{3-[2-(2-methoxy-ethylamino)-6-methyl-pyrimidin-4-yl]-phenyl}-8-trifluoromethyl-1,3-dihydro-benzo[b][1,4]diazepin-2-one], in that order: 200 to 203 °C and 8 nM.
For `Cc1cc(-c2cccc(C3=Nc4cc(C)c(Cl)cc4NC(=O)C3)c2)nc(N2CCOCC2)n1` [Example 327, 8-Chloro-7-methyl-4-[3-(6-methyl-2-morpholin-4-yl-pyrimidin-4-yl)-phenyl]-1,3-dihydro-benzo[b][1,4]diazepin-2-one], in that order: 252 to 256 °C and 12 nM.
On the same counts, the results for `O=C1CC(c2cccc(-c3ccc[n+]([O-])c3)c2)=Nc2cc(OCC(F)(F)F)c(C(F)(F)F)cc2N1` [Example 357, 4-[3-(1-Oxy-pyridin-3-yl)-phenyl]-7-(2,2,2-trifluoro-ethoxy)-8-trifluoromethyl-1,3-dihydro-benzo[b][1,4]diazepin-2-one] are 226 °C and 6.1 nM.
`CCOc1cc2c(cc1C(F)(F)F)NC(=O)CC(c1cccc(-c3cc[n+]([O-])c(C)c3)c1)=N2` [Example 359, 7-Ethoxy-4-[3-(2-methyl-1-oxy-pyridin-4-yl)-phenyl]-8-trifluoromethyl-1,3-dihydro-benzo[b][1,4]diazepin-2-one] registered a melting point of 227 °C. For the same compound, on rat mGlu2 receptor (setting [1]), the Ki stood at 26.5 nM.
On the same counts, the results for `Cc1cc(-c2cccc(C3=Nc4cc(Cl)c(Cl)cc4NC(=O)C3)c2)cc(C)[n+]1[O-]` [Example 376, 7,8-Dichloro-4-[3-(2,6-dimethyl-1-oxy-pyridin-4-yl)-phenyl]-1,3-dihydro-benzo[b][1,4]diazepin-2-one] are 225 °C and 16.5 nM.
For `Cc1cc2c(cc1C(F)(F)F)NC(=O)CC(c1cccc(-c3ccnc(N4CCOCC4)c3)c1)=N2` [Example 387, 7-Methyl-4-[3-(2-morpholin-4-yl-pyridin-4-yl)-phenyl]-8-trifluoromethyl-1,3-dihydro-benzo[b][1,4]diazepin-2-one], the melting point fell in the range of 240 to 242 °C. On rat mGlu2 receptor, this compound showed an inhibitory constant (Ki) of 14.5 nM.
The compound `O=C1CC(c2cccc(-c3ccnc(N4CCCC4)c3)c2)=Nc2cc(OCC(F)(F)F)c(C(F)(F)F)cc2N1` [Example 391, 4-[3-(2-Pyrrolidin-1-yl-pyridin-4-yl)-phenyl]-7-(2,2,2-trifluoro-ethoxy)-8-trifluoromethyl-1,3-dihydro-benzo[b][1,4]diazepin-2-one] came in with a melting point of 165 °C. Besides, the Ki on rat mGlu2 receptor (setting [1]) turned out to be 7.9 nM.
For `Cc1cc(-c2cccc(C3=Nc4cc(N(C)CC(C)C)c(Cl)cc4NC(=O)C3)c2)cc(C)n1` [Example 410, 8-Chloro-4-[3-(2,6-dimethyl-pyridin-4-yl)-phenyl]-7-(isobutyl-methyl-amino)-1,3-dihydro-benzo[b][1,4]diazepin-2-one], in that order: 229 °C and 3.25 nM.

Usually Ki stands for a measure of affinity in units of concentration, obtained from inhibition or displacement. For orientation: melting point means the temperature of the solid-liquid transition.
